Experimental findings from patent US12605360B2, “Compositions and methods using xanthan gum to stabilize at least one urolithin in an aqueous matrix” (SOCIETE DES PRODUITS NESTLE S.A., priority 2020, dated 2026) are described below.

Data set [1] can be described thus: Suspension of Urolithin A upon reconstitution of powder in water. Type of data set: physicochemical. How it is done: • 1. Initially the base selected was brown rice syrup powder to which UA was added. […] UA forms a suspension in oil, so another experiment used brown rice syrup powder with canola oil powder and whey protein.
Specifically, different gums and concentrations of gums were investigated with UA and a filler that was brown rice syrup powder: • 1. Guar gum • 2. PHGG • 3. Combination of guar and xanthan • 4. Acacia gum • 5. Gellan gum • 6. FMC Gum blend • 7. Xanthan gum
Table 1 (below) sets forth the formulations of the samples testing various gums with UA. FIGS. 3A and 3B set forth the results from these samples.
Some embodiments of the compositions disclosed herein include fruit flavor and thus citric acid. […] Table 2 (below) sets forth the formulations of the samples testing various gums with UA and citric acid. FIGS. 4A and 4B sets forth the results from these samples.
For each sample, after mixing the powder with water, five minutes elapsed, then the suspension was mixed again, and then viscosity was measured. Out of the various experiments, xanthan gum provided the best solution of not only keeping UA in suspension but also the desired viscosity, easily dissolved, and no off taste/odor to the product.
A range of xanthan gum amounts were then studied (Table 3 and FIG. 5). […]

A short description of data set [2]: Solubility of Urolithin A. Type of data set: physicochemical. From the text: The present disclosure addresses the inventors' recognition that Urolithin A (UA) is insoluble in water, such that a powder containing UA as the main functional ingredient presented the challenge of keeping UA in suspension upon reconstitution of the powder with water. In this regard, UA being insoluble promotes settling of UA at the bottom of the reconstitution container almost immediately. The present disclosure includes various ways of stabilizing Urolithin A in an aqueous matrix, such that when a powder containing UA is reconstituted, the UA remains in suspension.
Comparative experimental data was generated to investigate the possibility of stabilization of UA in an aqueous matrix.

Turning to `O=c1oc2cc(O)ccc2c2ccc(O)cc12` [Urolithin A], in data set [1], the “suspension of UA in an oil matrix” value is “forms a good suspension”. For the same compound, in data set [2] (oil), the solubility in oil result was “sparingly soluble”. For the same compound, in data set [2] (water), the solubility in water result is listed as “insoluble”.
